Columns and labels:
[1] = test system: isolated rat pulmonary vessels; assay: Relaxation of isolated small pulmonary arteries precontracted with norepinephrine (organ bath / vessel myograph); parameters: species or system rat (male Wistar); details: comparison of vardenafil, sildenafil and tadalafil
conscious Beagle dogs = assay: Measurement of Pulmonary Artery Pressure in conscious telemetric Beagle dogs; assay type: in vivo, dog (male Beagle); details: for lowering of pulmonary artery pressure (in words): conscious dogs; for reduction of U44096-induced PH (pulmonary artery pressure): conscious Beagle dogs, significant

CCCc1nc(C)c2c(=O)[nH]c(-c3cc(S(=O)(=O)N4CCN(CC)CC4)ccc3OCC)nn12 [Vardenafil, vardenafil]
relaxation of rat pulmonary vessels (ranking of PDE5 inhibitors) [1]: most prominent | relaxation of rat pulmonary vessels (ranking of PDE5 inhibitors) ([1]; listed as vardenafil): relaxed pulmonary vessels of rat more potently then the PDE5 inhibitors sildenafil and tadalafil | decrease of pulmonary artery pressure, inhaled vs oral (in words) (conscious Beagle dogs; inhalation compared with oral application, conscious dogs with telemetric implant): more potently decreased pulmonary artery pressure then Vardenafil applied orally | lowering of pulmonary artery pressure (in words) (conscious Beagle dogs; inhalation, 30μg/kg, compared with 10-fold higher oral dose): could lower pulmonary artery pressure as significantly as with the 10-fold higher oral dose | reduction of U44096-induced PH (pulmonary artery pressure) (conscious Beagle dogs; inhaled, 30μg/kg nebulized within 10 minutes): 30% | duration of the decrease of the pulmonary artery pressure (conscious Beagle dogs; inhaled, 30μg/kg/10 min, whole observation period 3 hours): ≥ 3 h | reduction of U44096-induced PH (pulmonary artery pressure) (conscious Beagle dogs; oral, 300μg/kg): 30% | lowering of pulmonary artery pressure (in words) (conscious Beagle dogs; oral, 300μg/kg): significantly lowered pulmonary artery pressure

Reference: WO2009115235A1, “Pde inhibitors for the treatment of pulmonary hypertension” (Bayer Schering Pharma AG, priority 2008, dated 2009)
